US20260297136A1, “PEPTIDES WITH LIPOLYTIC, ANTI-LIPOGENIC, ANTIFIBROTIC AND ANTI-INFLAMMATORY ACTIVITY” (FUNDACIÓ HOSPITAL UNIVERSITARI VALL D'HEBRON - INSTITUT DE …, priority 2023, published 2026)

Legend:
[1] = tested on: obesity and fatty liver disease mouse model; assay: Preventive effects in an obesity and fatty liver disease mouse model, Example 4; assay type: in vivo, C57BL6/J male mice; settings: 20 mg/kg/day sc, 8 weeks
Procedure: (§1) C57BL6/J male mice were purchased and kept for quarantine and acclimatization for a period of about 7 days before initiation of every experiment. Mice were housed in clean and sterilized mice cages and maintained in a controlled environment with 22+3° C. temperature, 50+20% humidity, a light/dark cycle of 12 hours each and 15-20 fresh air changes per hour.
For Obesity and NAFLD induction, the animals were fed ad libitum, either with chow diet (150SP-10, Safe Diets) or 45% high-fat diet (TD.190179, Envigo) plus 30% fructose (F0127, Sigma Aldrich) in drinking water for 8 weeks in the daily presence of vehicle or a subcutaneous injection of GP6 (20 mg/kg/day). A group of mice (n=18) was randomly divided in two groups of 9 mice each. Both groups were fed with high fat diet and 30% fructose in the drinking water for 8 weeks to develop obesity and fatty liver disease. One group was treated with daily subcutaneous injections of vehicle (water) and the other with daily subcutaneous injection of GP6 (20 mg/kg/day) during the 8 weeks that last the experiment.
(§2) At the end of the experiment mice were sacrificed, serum samples were extracted, tissues were weighted and part was fixed in paraformaldehyde for histology studies and part immediately frozen at −80 C for mRNA and protein expression studies as well as assessment of triglycerides.
For histological studies, livers and adipose tissue were fixed in 4% paraformaldehyde for 24 hours and embedded in paraffin. Serial […] sections were used for histological examination and stained with hematoxylin eosin (H&E) and Picrosirius red for histological examination following standard procedures. Briefly, sections were alcohol-xylol hydrated at room temperature, and subsequently, they were stained at room temperature in a solution of 0.1% Direct Red 80 (Sigma-Aldrich) in a saturated aqueous solution of [COMPOUND LEFT OUT] (Sigma-Aldrich) for 1 h. Following that, sections were rinsed twice in 0.5% acetic acid or 5 min, alcohol-xylol dehydrated and covered with Eukitt mounting medium (Sigma-Aldrich). These sections were examined with an Olympus BX61 microscope. Six random fields at 4× magnification from each slice were quantified using ImageJ software to determine the liver collagen deposition as the red stained area in the image. The stage of liver steatosis and/or fibrosis was assessed blinded by an experienced pathologist according to the NASH-clinical research network scoring system (Design and validation of a histological scoring system for nonalcoholic fatty liver disease. Kleiner D E, Brunt E M, Van Natta M, Behling C, Contos MJ, Cummings O W, Ferrell L D, Liu Y C, Torbenson M S, Unalp-Arida A, Yeh M, McCullough A J, Sanyal AJ; Nonalcoholic Steatohepatitis Clinical Research Network. Hepatology. 2005 June; 41(6):1313-21. doi: 10.1002/hep.20701; Transforming growth factor-beta 1: A new factor reducing hepatic SHBG production in liver fibrosis. Briansó-Llort L, Fuertes-Rioja L, Ramos-Perez L, Salcedo-Allende M T, Hernandez C, Simo R, Selva D M. J Cell Physiol. 2022 September; 237(9):3598-3613. doi: 10.1002/jcp.30818). […]
Hepatic TG content was measured from liver extracts using a Triglyceride Assay Kit (ab65336) following the manufacture's instructions.
Total RNA was extracted from mouse tissues using TRIzol reagent (Invitrogen SA). Reverse transcription was performed at 42° C. for 50 minutes using […] of total RNA, 200 U of Superscript II, and an oligo-dT primer and reagents provided by Invitrogen. An aliquot of the reverse transcription product was amplified in a […] reaction using SYBRGreen (Invitrogen SA) with appropriate oligonucleotide primer pairs corresponding mouse ACC, FAS, ACLY, PPARG, Col1A1, F4/80, TNFα, IL1β, IL6, TGFβ1, Leptin, Adiponectin and 18S (shown in table 7). […]

[2] = tested on: obesity and fatty liver disease mouse model; assay: Therapeutic effects in an obesity and fatty liver disease mouse model, Example 6; assay type: in vivo, C57BL6/J male mice
Procedure: as §1
For Obesity and NAFLD induction, the animals were fed ad libitum, either with chow diet (150SP-10, Safe Diets) or 45% high-fat diet (TD.190179, Envigo) plus 30% fructose (F0127, Sigma Aldrich) in drinking water for 20 weeks. The therapeutic effect of a daily subcutaneous injection of GP6 (20 mg/kg/day) in this mouse model was assessed for 10 weeks, starting the treatment on week 10 of the experiment until week 20.
A group of control mice (n=10) was fed with control diet and regular drinking water and a group of mice (n=30) obesity and fatty liver disease was induced for 10 weeks. At this point, mice were randomly divided in three groups of n=10, the first group was treated with daily subcutaneous injections of vehicle (water), the second group was treated with Telmisartan (5 mg/kg/day) in the drinking water and a subcutaneous injection of vehicle, and the third group with daily subcutaneous injection of GP6 (20 mg/kg/day) during 10 weeks.
as §2
The histology studies, AST and ALT measurements, TG measurements, and the RNA analysis were performed as described in Example 4.

[3] = blind pathologist, histology reduction confirmed
[4] = 20 mg/kg/day sc, 10 weeks, vs vehicle
[5] = 20 mg/kg/day sc, 10 weeks, blind pathologist, lipid reduction corroborated

CC[C@@H](C)[C@@H](NC(=O)[C@H](NC(=O)CNC(=O)[C@@H](CCC(=O)O)NC(=O)[C@H]1CCCN1C(=O)[C@@H](CC(=O)O)NC(=O)[C@@H](Cc1c[nH]c2ccccc12)NC(=O)[C@H](NC(=O)[C@@H](CCCNC(=N)N)NC(=O)[C@H](NC(=O)[C@@H](CCC(=O)O)NC(=O)[C@@H](Cc1ccccc1)NC(=O)[C@@H](CO)NC(=O)[C@@H](CO)NC(=O)[C@@H](CO)NC(=O)[C@H](NC(=O)[C@@H](CCCCN)NC(=O)[C@H](N)[C@H](C)O)[C@H](C)O)C(C)C)[C@H](C)O)C(C)C)C(=O)N[C@H](Cc1ccccc1)C(=O)N[C@H](Cc1ccc(O)cc1)C(=O)O [GP6] was tested, and the “ACC mRNA levels in liver” value ([1]; vs vehicle) was “reduced the mRNA levels”, the “F480 mRNA levels in adipose tissue” value ([1]; vs vehicle) was “reduced expression” and the “F480 mRNA levels in hepatic tissue” value ([1]; vs vehicle) was “reduced expression”. For the same compound, the “FAS mRNA levels in liver” value ([1]; vs vehicle) was “reduced the mRNA levels”, the “PPARγ mRNA levels in liver” value ([1]; vs vehicle) was “reduced the mRNA levels” and the Total body weight ([1]; vs vehicle) was “significantly reduced”. For the same compound, the “adipose tissue fibrosis (Col1A1 mRNA expression in adipose tissue)” value ([1]; vs vehicle) was “reduced adipose tissue fibrosis”, the “hepatic expression of IL1β” value ([1]; vs vehicle) was “reduced the hepatic expression” and the “hepatic expression of IL6” value ([1]; vs vehicle) was “reduced the hepatic expression”. For the same compound, the “hepatic expression of TNFα” value ([1]; vs vehicle) was “reduced the hepatic expression”, the total liver weight ([1]; vs vehicle) was “significantly reduced” and the “weight increment (weight at week 8-weight at week 0)” value ([1]; vs vehicle) was “significantly reduced”. For the same compound, the “weight of brown adipose tissue” value ([1]; vs vehicle) was “significantly reduced”, the “weight of subcutaneous adipose tissue” value ([1]; vs vehicle) was “significantly reduced” and the “weight of visceral adipose tissue” value ([1]; vs vehicle) was “significantly reduced”. For the same compound, the “hepatic lipid accumulation (histology)” value ([1]; vs vehicle, H&E) was “reduced significantly”, the Brunt score [1, 3] was “confirmed” and the Steatosis score [1, 3] was “confirmed”. The percentage of steatosis [1, 3] was “confirmed”, the “hepatic triglyceride content (Liver TAG)” value ([1]; histology reduction confirmed) was “confirmed” and the AST serum levels ([2]; 20 mg/kg/day sc, 10 weeks) was “reduced significantly”. For the same compound, the “hepatic fibrosis (picrosirius staining)” value ([2]; 20 mg/kg/day sc, 10 weeks) was “did not showed hepatic fibrosis”, the “total body weight gain” value ([2]; 20 mg/kg/day sc, 10 weeks) was “reducing total body weight gain” and the “reduction of hepatic lipid accumulation compared with Telmisartan” value ([2]; 20 mg/kg/day sc, 10 weeks, vs Telmisartan 5 mg/kg/day) was “to a greater extend than Telmisartan treatment”. The “Total body weight versus control mice” value ([2]; 20 mg/kg/day sc, 10 weeks, vs control diet mice) was “not significantly heavier than control mice”, the “ACC mRNA levels in hepatic tissue” value [2, 4] was “reduced the mRNA levels” and the “Col1A1 expression in hepatic tissue” value [2, 4] was “reduced expression levels”. For the same compound, the “F480 mRNA levels (adipose tissue inflammation)” value [2, 4] was “reduced expression”, the “F480 mRNA levels in hepatic tissue” value [2, 4] was “reduced expression” and the “IL1β expression (adipose tissue inflammation)” value [2, 4] was “reduced expression”. The “PPARγ mRNA levels in hepatic tissue” value [2, 4] was “reduced the mRNA levels”, the “TGFβ1 expression in hepatic tissue” value [2, 4] was “reduced expression levels” and the “adipose tissue fibrosis (Col1A mRNA expression)” value [2, 4] was “reduced adipose tissue fibrosis”. The “heart fibrosis (Col1A1 mRNA expression)” value [2, 4] was “reduced heart fibrosis”, the “hepatic expression of TNFα” value [2, 4] was “reduced the hepatic expression” and the “liver triglyceride (TAG) content” value [2, 4] was “reduced significantly”. The liver weight [2, 4] was “reduced significantly”, the serum glucose levels [2, 4] was “reduced the increase glucose levels” and the “hepatic lipid accumulation (histology)” value ([2]; 20 mg/kg/day sc, 10 weeks, vs vehicle, H&E) was “reduced significantly”. The Brunt score [2, 5] was “corroborated”, the Steatosis score [2, 5] was “corroborated” and the “Alanine transaminase (ALT) serum levels” value ([2]; sc, as stated in the summary for Example 6) was “reduction”.
